Where two headings read alike, the source gives them in different places.
Key:
[1] = test system: Leptosphaeria nodorum (LEPTNO); assay: In vitro fungitoxicity of hydrazones with and without copper towards Leptosphaeria nodorum (Example 26); type: cell-based; conditions: 72 h at 25° C.; for inhibition of growth at 0.05 µg/mL: Parastagonospora nodorum, 72 h, copper-minus medium, read-out: LEPTNO % Inhn. Minus Copper Observed
[2] = test system: Phytophthora infestans; type: in vivo, Phytophthora infestans on tomato; conditions: applied 24 h before inoculation, assessed 7 days after inoculation
[3] = test compound Concn. 0.05 μg/mL
[4] = copper-plus medium (CuCl2 10 μM), test compound Concn. 0.05 μg/mL
[5] = hydrazone 50 ppm with 50 μM CuCl2.2H2O, tomato late blight
[6] = compound 0.05 μg/mL, copper-plus medium (CuCl2.2H2O)
[7] = hydrazone 50 ppm + 50 μM CuCl2.2H2O, tomato

SMILES | inhibition of growth at 0.05 µg/mL [1, 3] [%] | LEPTNO % Inhn. Plus Copper Observed [1, 4] [%] | TLB % Control [2, 5] [%] | melting point [°C] | inhibition of growth at 0.05 µg/mL ([1]; compound 0.05 μg/mL) [%] | LEPTNO % Inhn. Plus Copper Observed [1, 6] [%] | TLB % Control [2, 7] [%]
C/C(=N\NC(=O)c1ccc(C)cc1)c1cc(F)cc(F)c1O [Example 575] | 0 | 98.1 | 100.0 | 220 to 222 | – | – | –
O=C(N/N=C/c1cccc(C(F)(F)F)c1O)c1ccc([N+](=O)[O-])cc1 [Example 350] | 11.3 | 94.9 | 97.0 | 253 to 255 | – | – | –
COc1ccc(/C(C)=N/NC(=O)c2cccc(Cl)c2)c(O)c1OC [Example 556] | 7.7 | 95.9 | 75.0 | 194 to 201 | – | – | –
COc1ccc(/C(C)=N/NC(=O)c2ccccc2Br)c(O)c1 [Example 476] | 0 | 93.9 | 69.0 | 205 to 206 | – | – | –
O=C(N/N=C/c1cc(Cl)cc(C(F)(F)F)c1O)c1cccc(Cl)c1 [Example 380] | 36.1 | 98.3 | 100.0 | 228 to 229 | – | – | –
O=C(N/N=C/c1c(C(F)(F)F)ccc(Cl)c1O)c1ccc([N+](=O)[O-])cc1 [Example 454] | 12.4 | 100.0 | 100.0 | 305 to 307 | – | – | –
C/C(=N\NC(=O)c1ccc(Cl)cc1)c1ccc(Cl)cc1O [Example 257] | – | – | – | 246 to 247 | 6 | 94.4 | 21.0
O=C(N/N=C/c1c(C(F)(F)F)ccc(Cl)c1O)c1cccc(F)c1 [Example 449] | 7.2 | 98.5 | 92.0 | 227 to 229 | – | – | –
O=C(N/N=C/c1cc(Cl)ccc1O)c1ccc([N+](=O)[O-])cc1 [Example 12] | – | – | – | 259 to 262 | 0.5 | 97.4 | 94.0
C/C(=N\NC(=O)c1ccccc1)c1cccc([N+](=O)[O-])c1O [Example 268] | – | – | – | 215 to 224 | 1.2 | 98.7 | 31.0
O=C(N/N=C/c1cccc(C(F)(F)F)c1O)c1ccccc1 [Example 296] | 8.3 | 97.7 | 84.7 | 170 to 173 | – | – | –
Cc1ccc(C(=O)N/N=C/c2cc(C(F)(F)F)cc(Cl)c2O)c(O)c1 [Example 331] | 22.8 | 97.8 | 100.0 | 255 to 257 | – | – | –
C/C(=N\NC(=O)c1ccc(Cl)cc1)c1cc(Br)cc(Br)c1O [Example 545] | 19.6 | 97.9 | 95.0 | 255 to 258 | – | – | –
O=C(N/N=C/c1ccc(Cl)cc1O)c1ccc(F)cc1 [Example 390] | 4.2 | 97.5 | 95.0 | 226 to 228 | – | – | –
Cc1ccc(C(=O)N/N=C/c2cc(Cl)cc(C(F)(F)F)c2O)c(O)c1 [Example 386] | 41.1 | 98.4 | 100.0 | 252 to 254 | – | – | –
COc1ccc(O)c(/C(C)=N/NC(=O)c2cccc(Cl)c2)c1 [Example 266] | – | – | – | 190 to 201 | 4.5 | 95.4 | 28.0
O=C(N/N=C/c1ccc(C(F)(F)F)cc1O)c1ccccc1 [Example 294] | – | – | – | 215 to 217 | 1.7 | 94.2 | 72.9

From patent US20120010075A1 (priority 2009, published 2012)
